Data as given in PubChem BioAssay AID248 (DTP/NCI, 2004).
Several values for one entry are separate records, joined by “and”; a condition that tells them apart may be missing. Equal values may be shown once. Inconclusive results and toxic doses are left out. Cut-off read from the data, not from the text of the source: active = T/C of 150% or more; inactive = T/C below 125%.

Tested on: L1210 leukemia ip in BDF1 mice, survival T/C
Assay: NCI In Vivo Anticancer Drug Screen. Data for tumor model L1210 Leukemia (intraperitoneal) in B6D2F1 (BDF1) mice
Conditions: endpoint: mean survival time, higher = longer survival
Method in brief: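 Mice bearing the transplanted tumor received compound or vehicle. Survival of the treated group was divided by that of the vehicle-treated control group to give the ratio.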

[1] = dose: 50.0 mg/kg/injection, schedule: Q01DX009 (ip), vehicle: saline with Tween-80
[2] = dose: 50.0 mg/kg/injection, schedule: Q04DX003 (ip), vehicle: saline with Tween-80
[3] = dose: 100.0 mg/kg/injection, schedule: Q01DX009 (ip), vehicle: saline with Tween-80
[4] = dose: 200.0 mg/kg/injection, schedule: Q01DX009 (ip), vehicle: saline with Tween-80
[5] = dose: 50.0 mg/kg/injection, schedule: Q01DX001 (ip), vehicle: carboxymethylcellulose (CMC)
[6] = dose: 100.0 mg/kg/injection, schedule: Q01DX001 (ip), vehicle: carboxymethylcellulose (CMC)
[7] = dose: 200.0 mg/kg/injection, schedule: Q01DX001 (ip), vehicle: carboxymethylcellulose (CMC)
[8] = dose: 400.0 mg/kg/injection, schedule: Q01DX001 (ip), vehicle: carboxymethylcellulose (CMC)
[9] = dose: 100.0 mg/kg/injection, schedule: Q04DX003 (ip), vehicle: gum acacia
[10] = dose: 200.0 mg/kg/injection, schedule: Q04DX003 (ip), vehicle: gum acacia
[11] = dose: 400.0 mg/kg/injection, schedule: Q04DX003 (ip), vehicle: gum acacia
[12] = dose: 400.0 mg/kg/injection, schedule: Q01DX009 (ip), vehicle: saline with Tween-80
[13] = dose: 100.0 mg/kg/injection, schedule: Q04DX003 (ip), vehicle: saline with Tween-80
[14] = dose: 200.0 mg/kg/injection, schedule: Q04DX003 (ip), vehicle: saline with Tween-80
[15] = dose: 400.0 mg/kg/injection, schedule: Q04DX003 (ip), vehicle: saline with Tween-80
[16] = dose: 100.0 mg/kg/injection, schedule: Q04DX003 (ip), vehicle: other
[17] = dose: 100.0 mg/kg/injection, schedule: Q04DX003 (ip), vehicle: Klucel (hydroxypropylcellulose) (HPC)
[18] = dose: 200.0 mg/kg/injection, schedule: Q04DX003 (ip), vehicle: Klucel (hydroxypropylcellulose) (HPC)
[19] = dose: 400.0 mg/kg/injection, schedule: Q04DX003 (ip), vehicle: Klucel (hydroxypropylcellulose) (HPC)
[20] = dose: 100.0 mg/kg/injection, schedule: Q04DX002 (ip), vehicle: Klucel (hydroxypropylcellulose) (HPC)
[21] = dose: 200.0 mg/kg/injection, schedule: Q04DX002 (ip), vehicle: Klucel (hydroxypropylcellulose) (HPC)
[22] = dose: 400.0 mg/kg/injection, schedule: Q04DX002 (ip), vehicle: Klucel (hydroxypropylcellulose) (HPC)
[23] = dose: 100.0 mg/kg/injection, schedule: Q01DX009 (ip), vehicle: Klucel (hydroxypropylcellulose) (HPC)
[24] = dose: 200.0 mg/kg/injection, schedule: Q01DX009 (ip), vehicle: Klucel (hydroxypropylcellulose) (HPC)

Measured: T/C

C=CCN(C)/N=N/c1[nH]ncc1C(N)=O
active: [1] 157 % of control | [3] 154 % of control
inactive: dose: 14.5 mg/kg/injection, schedule: Q01DX009 (ip), vehicle: saline with Tween-80 116 % of control | dose: 44.0 mg/kg/injection, schedule: Q04DX003 (ip), vehicle: saline with Tween-80 114 % of control | [2] 119 % of control | dose: 67.0 mg/kg/injection, schedule: Q04DX003 (ip), vehicle: saline with Tween-80 114 % of control | dose: 100.0 mg/kg/injection, schedule: Q01DX001 (ip), vehicle: saline with Tween-80 109 % of control | [4] 88 % of control

N#CC(C(=O)O)C1(C(C#N)C(=O)O)CCN(Cc2ccccc2)CC1 (stereo not drawn)
inactive: dose: 75.0 mg/kg/injection, schedule: Q01DX001 (ip), vehicle: carboxymethylcellulose (CMC) 96 % of control | dose: 150.0 mg/kg/injection, schedule: Q01DX001 (ip), vehicle: carboxymethylcellulose (CMC) 100 % of control | dose: 300.0 mg/kg/injection, schedule: Q01DX001 (ip), vehicle: carboxymethylcellulose (CMC) 102 % of control

Cc1ccc2c(n1)Nc1nc(N)[nH]c(=O)c1S2
inactive: dose: 12.5 mg/kg/injection, schedule: Q04DX003 (ip), vehicle: carboxymethylcellulose (CMC) 97 % of control | dose: 25.0 mg/kg/injection, schedule: Q04DX003 (ip), vehicle: carboxymethylcellulose (CMC) 97 % of control

Fc1cc(N(CCCl)CCCl)ccc1CN1CCCN(Cc2ccc(N(CCCl)CCCl)cc2F)C1c1ccc(N(CCCl)CCCl)cc1F
inactive: [5] 100 % of control | [6] 96 % of control | [7] 102 % of control | [8] 94 % of control

Cc1ccc(S(=O)(=O)Nc2ccc(C(=O)Cl)cc2)cc1
inactive: [9] 95 % of control | [10] 106 % of control | [11] 90 % of control

O=C(c1ccccc1)c1cn(C2CCCCC2)c(-c2ccccc2)c1NC1CCCCC1
inactive: [3] 93 % of control | [4] 93 % of control | [12] 102 % of control

C#CCCCN1CCC2(CC1)C(=O)N(C(=O)N(C)C)CN2c1ccccc1
inactive: dose: 25.0 mg/kg/injection, schedule: Q04DX003 (ip), vehicle: saline with Tween-80 105 % of control | [2] 103 % of control | [13] 88 % of control and 92 % of control

Cc1cc2ncn(C(=O)Nc3ccccc3)c2cc1C
inactive: [13] 92 % of control | [14] 87 % of control | [15] 90 % of control

c1ccc(CSn2cnc3nc4ccccc4c-3c2)cc1
inactive: [9] 91 % of control | [10] 91 % of control | [11] 91 % of control

O=[N+]([O-])c1ccc(NCSc2ccc(Cl)cc2)cc1
inactive: [16] 101 % of control | dose: 200.0 mg/kg/injection, schedule: Q04DX003 (ip), vehicle: other 106 % of control | dose: 400.0 mg/kg/injection, schedule: Q04DX003 (ip), vehicle: other 108 % of control

Cc1ccc(-c2nnc3n2C(C)(C)N=C(N)N3)cc1
inactive: [13] 105 % of control | [14] 91 % of control | [15] 101 % of control

CC(C)(C)OC(=O)NC(Cc1ccccc1)C(=O)O (stereo not drawn)
inactive: dose: 100.0 mg/kg/injection, schedule: Q01DX001 (ip), vehicle: saline 100 % of control | dose: 200.0 mg/kg/injection, schedule: Q01DX001 (ip), vehicle: saline 94 % of control | dose: 400.0 mg/kg/injection, schedule: Q01DX001 (ip), vehicle: saline 93 % of control

COc1cc2nn(-c3ccccc3N)nc2cc1OC
inactive: [1] 98 % of control | [3] 90 % of control | [4] 102 % of control

CN(C)CCN=Cc1[nH]c(=S)[nH]c(=O)c1Cc1ccc(Cl)cc1
inactive: [17] 101 % of control | [18] 94 % of control | [19] 95 % of control

Cc1ccc(Nc2nc(N)nc(N)c2N)c(C)c1
inactive: dose: 12.0 mg/kg/injection, schedule: Q01DX Z (ip), vehicle: saline 110 % of control

CC/C(=N/N=C(N)N)c1ccc(F)cc1
inactive: dose: 15.0 mg/kg/injection, schedule: Q01DX Z (oral), vehicle: carboxymethylcellulose (CMC) 104 % of control | dose: 30.0 mg/kg/injection, schedule: Q01DX Z (oral), vehicle: carboxymethylcellulose (CMC) 101 % of control | dose: 60.0 mg/kg/injection, schedule: Q01DX Z (oral), vehicle: carboxymethylcellulose (CMC) 98 % of control

CSc1ncnc2c1ncn2N(CCCl)C(C)=O
inactive: dose: 25.0 mg/kg/injection, schedule: Q01DX001 (ip), vehicle: other 96 % of control | dose: 25.0 mg/kg/injection, schedule: Q01DX009 (ip), vehicle: other 101 % of control | dose: 25.0 mg/kg/injection, schedule: Q04DX003 (ip), vehicle: other 100 % of control | dose: 50.0 mg/kg/injection, schedule: Q01DX001 (ip), vehicle: other 98 % of control | dose: 50.0 mg/kg/injection, schedule: Q01DX009 (ip), vehicle: other 105 % of control | dose: 50.0 mg/kg/injection, schedule: Q04DX003 (ip), vehicle: other 103 % of control | dose: 100.0 mg/kg/injection, schedule: Q01DX001 (ip), vehicle: other 96 % of control and 105 % of control | dose: 100.0 mg/kg/injection, schedule: Q01DX009 (ip), vehicle: other 97 % of control | [16] 102 % of control

CC(/C=C(\C)N1CCCC1)=[N+]1CCCC1
inactive: dose: 0.78 mg/kg/injection, schedule: Q01DX009 (ip), vehicle: saline 101 % of control | dose: 1.56 mg/kg/injection, schedule: Q01DX009 (ip), vehicle: saline 101 % of control | dose: 1.56 mg/kg/injection, schedule: Q04DX003 (ip), vehicle: saline 94 % of control and 108 % of control | dose: 3.12 mg/kg/injection, schedule: Q04DX003 (ip), vehicle: saline 112 % of control and 89 % of control | dose: 6.25 mg/kg/injection, schedule: Q04DX003 (ip), vehicle: saline 110 % of control

Cc1ccc(NC(=O)NCCOc2ccc(Br)cc2)c([N+](=O)[O-])c1
inactive: [1] 98 % of control | [3] 95 % of control | [13] 92 % of control | [4] 95 % of control | [14] 91 % of control | [15] 100 % of control

O=C1C(=O)c2cc(Br)ccc2-c2ccc(Br)cc21
inactive: [5] 107 % of control | [6] 107 % of control | [7] 100 % of control | [8] 89 % of control

COC1OCN(C)CC1(C)C (stereo not drawn)
inactive: dose: 75.0 mg/kg/injection, schedule: Q01DX009 (ip), vehicle: saline 87 % of control | [17] 105 % of control | dose: 150.0 mg/kg/injection, schedule: Q01DX009 (ip), vehicle: saline 95 % of control | [18] 102 % of control | dose: 300.0 mg/kg/injection, schedule: Q01DX009 (ip), vehicle: saline 99 % of control

Cc1ccccc1OC(=O)c1ccccc1
inactive: [13] 107 % of control | [14] 104 % of control | [15] 104 % of control

CCCCCCCCCCCCN=C(N)N/C(N)=N/S(=O)(=O)c1ccc(OCCC)cc1
inactive: [20] 106 % of control | [21] 100 % of control | [22] 95 % of control

COc1ccc(/C=C(\C(=O)O)c2cccc3ccccc23)cc1
inactive: [23] 91 % of control | [20] 100 % of control | [24] 107 % of control | [21] 86 % of control | [22] 104 % of control

Cc1ccc(-c2cc(-c3ccccc3)no2)cc1
inactive: [23] 97 % of control | [17] 102 % of control | [24] 95 % of control | [18] 102 % of control | dose: 400.0 mg/kg/injection, schedule: Q01DX009 (ip), vehicle: Klucel (hydroxypropylcellulose) (HPC) 95 % of control | [19] 93 % of control

CC(C)OC(=O)C(NC=O)C(C)(C)S (stereo not drawn)
inactive: [13] 93 % of control | [14] 102 % of control | [15] 97 % of control

Cc1ncc(CO)c(C2NOCc3c(Cl)cc4c(c32)OCO4)c1O (stereo not drawn)
inactive: [3] 90 % of control | [4] 95 % of control | [12] 94 % of control
